Experimental data as given in patent US20090214459A1, “METHOD OF USING CERTAIN CATIONIC POLYMERS AS ANTIOXIDANTS OR FREE-RADICAL SCAVENGERS” (priority 2008, published 2009).

Tested on: HaCaT keratinocytes exposed to UVA
Experiment: Antioxidant/free-radical scavenging activity with respect to UVA oxidative stress induced on keratinocytes (DCFH-DA fluorescent probe)
Format: cell-based
Details: 30 μM, 24 hours pre-incubation, UVA 2 J/cm^2, DCF fluorescence
Protocol: Method for Evaluating the Antioxidant/Free-Radical Scavenging Activity of the Polymers of the Invention with Respect to a UVA Oxidative Stress Induced on Keratinocytes
The technique for evaluating the photoprotection was carried out according to a well-known method (J. of Photochemistry and Photobiology B: Biology 57 (2000) 102-112 TOBI et al: Glutathione modulates the level of free radicals produced in UVA irradiated cells). This technique used a fluorescent probe, a marker for intracellular global oxidative stress, 2′-7′-dichlorofluorescin diacetate (DCFH-DA).
The use of DCFH-DA as a marker of the oxidative stress rests on its physicochemical properties. It is an apolar and non-ionic molecule capable of diffusing through cell membranes. Once inside the cell, DCFH-DA will be hydrolysed by intracellular esterases to a non-fluorescent compound: DCFH or 2,7-dichlorofluorescin. In the presence of activated oxygen species, DCFH is rapidly oxidized to a highly fluorescent compound: DCF or 2,7-dichlorofluorescein.
Three compounds were tested: hexadimethrine chloride (MEXOMERE PO from Chimex corresponding to a polycondensate of formula (I)), citric acid and glycine (0.0001% w/v for the MEXOMERE PO, 30 μM for the citric acid and the glycine). […]
The fluorescence of DCF was evaluated immediately after the exposure to UVA, by spectrofluorimetry (excitation: 480 nm; emission: 530 nm).

Row | Compound | level of protection (antioxidant efficacy with respect to UVA oxidative stress) [%]
1 | O=C(O)CC(O)(CC(=O)O)C(=O)O [Citric acid, citric acid] | ~18
2 | NCC(=O)O [glycine] | ~15
